Measured values from US8088951B2, “Epigenetic mechanisms re-establish access to long-term memory after neuronal loss” (Massachusetts Institute of Technology, priority 2006, dated 2012).
Entries after “also recorded” stand apart in the source; their conditions may differ.

Tested on: MAP-2, synaptophysin (SVP), synaptic marker proteins
Assay: Synaptic plasticity markers in CK-p25 Tg mice (immunostaining, immunoblot)
Format: in vivo
Method: Immunoblotting and staining: Lysates for immunoblotting were prepared as described by Fischer et al. (3). To isolate histones, brain tissue was homogenized in TX-buffer (50 mM Tris HCL, 150 mM NACL, 2 mM EDTA, 1% Triton-100) and incubated at 4° C. for 15 min prior to centrifugation at 200 rpm for 10 min. After a wash-step in TX-buffer the pellet was dissolved in TX-buffer containing 0.2M HCl and incubated on ice for 30 min, before a second centrifugation at 10000 rpm for 10 min. The supernatant was either dialysed or directly used for immunoblotting. Antibodies were used in 1:1000 concentrations. All antibodies detecting histones and anti-PSD-95 were form Upstate (Lake Placid, N.Y.). Anti-synaptophysin (SVP38) was from Sigma. Anti-neuronal nuclei (neuN) and anti-growth associated protein (Gap43) were from Chemicon (Temecula, Calif.) and anti-N-cadherin, anti-β-catenin were from Santa Cruz (Santa Cruz, Calif.). Immunostaining was performed as described by Fischer et al. (3). Antibodies mentioned above were used in a 1:500 dilution. Anti-MAP-2 antibody (Sigma) was used in a 1:200 dilution.
LSMeta10 software (Zeiss; Jena, Germany) was used to calculate the mean SVP intensity. Brain sections with the strongest intensity were scanned first. All other images included in the analysis where scanned using the same microscope setting. […] Scale bar: 20 μm. py, pyramidal cell layer (FIG. 1g).
For SB treatment, p25 was induced in 11 month old CK-p25 Tg mice for 6 weeks. Afterwards p25 expression was repressed and one group of CK-p25 Tg mice was subjected to daily sodiumbutyrate (SB) injection (1.2 g/kg) for 4 weeks, whereas the other group received saline injection. […] Representative images showing hippocampal MAP-2 staining are depicted in FIG. 7f. MAP-2 immunoreactivity of CK-p25 Tg mice treated with SB is increased when compared to the vehicle group. Representative images showing NeuN staining of the ACC.

SMILES: CCCC(=O)[O-].[Na+] [SB, sodiumbutyrate]
- levels of synaptic marker proteins (markers for synaptic plasticity and integrity) (CK-p25 Tg mice, daily 1.2 g/kg for 4 weeks, hippocampus and cortex, vs vehicle): increased levels of synaptic marker proteins; also recorded: several markers for synaptic plasticity and integrity were increased
- hippocampal MAP-2 immunoreactivity (CK-p25 Tg mice, daily 1.2 g/kg for 4 weeks, vs vehicle): increased
- levels of synaptic marker proteins (CK-p25 Tg mice, long-term memory experiment, vs vehicle group): elevated levels of synaptic marker proteins
- MAP-IR in the ACC (CK-p25 Tg mice, vs vehicle treated): MAP-IR was increased
- hippocampal SVP-IR (CK-p25 mice, vs vehicle-injected, P<0.0001): increased hippocampal SVP-IR
